Inconclusive results and toxic doses are left out. Rule for the calls: active = survival T/C of 150% or more; inactive = T/C below 125% in these data.
Tested on: CD2F1 mice, L1210 leukemia ip, survival T/C
Experiment: NCI In Vivo Anticancer Drug Screen. Data for tumor model L1210 Leukemia (intraperitoneal) in CD2F1 (CDF1) mice
Conditions: endpoint: mean survival time, higher = longer survival
Method in brief: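 Tumor-bearing mice (transplanted tumor) were split into treated and vehicle control groups, and the measured endpoint of each treated group was divided by that of its vehicle controls.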

[1] = dose: 100.0 mg/kg/injection, schedule: Q04DX003 (ip), vehicle: saline with Tween-80
[2] = dose: 200.0 mg/kg/injection, schedule: Q04DX003 (ip), vehicle: saline with Tween-80
[3] = dose: 100.0 mg/kg/injection, schedule: Q01DX009 (ip), vehicle: saline with Tween-80
[4] = dose: 200.0 mg/kg/injection, schedule: Q01DX009 (ip), vehicle: saline with Tween-80
[5] = dose: 400.0 mg/kg/injection, schedule: Q01DX009 (ip), vehicle: saline with Tween-80
[6] = dose: 400.0 mg/kg/injection, schedule: Q04DX003 (ip), vehicle: saline with Tween-80
[7] = dose: 100.0 mg/kg/injection, schedule: Q01DX001 (ip), vehicle: saline with Tween-80
[8] = dose: 200.0 mg/kg/injection, schedule: Q01DX001 (ip), vehicle: saline with Tween-80
[9] = dose: 400.0 mg/kg/injection, schedule: Q01DX001 (ip), vehicle: saline with Tween-80
[10] = dose: 50.0 mg/kg/injection, schedule: Q01DX009 (ip), vehicle: saline
[11] = dose: 100.0 mg/kg/injection, schedule: Q01DX009 (ip), vehicle: saline

Measured: T/C

CC(C)CCCC(C)C1CCC2C3CC(CO)C4CC(O)CCC4(C)C3CCC12C (stereo unspecified)
inactive: [1] 87 % of control | [2] 88 % of control

COc1ccc2ccccc2c1NC(C)=O
inactive: dose: 100.0 mg/kg/injection, schedule: Q01DX001 (ip), vehicle: saline 102 % of control | dose: 200.0 mg/kg/injection, schedule: Q01DX001 (ip), vehicle: saline 101 % of control | dose: 400.0 mg/kg/injection, schedule: Q01DX001 (ip), vehicle: saline 101 % of control

CCN(CC)C1=C(Cl)C(=O)C(=O)c2cccnc21
inactive: dose: 9.4 mg/kg/injection, schedule: Q01DX009 (ip), vehicle: saline 101 % of control

CCc1ccc(OS(=O)(=O)c2cccc([N+](=O)[O-])c2)cc1
inactive: [3] 98 % of control | [1] 94 % of control | [4] 91 % of control | [2] 105 % of control | [5] 102 % of control | [6] 100 % of control

Cc1ccc(-n2c(=S)[nH]c3ccccc3c2=O)cc1F
inactive: [7] 92 % of control | [3] 88 % of control | [8] 92 % of control | [4] 88 % of control | [9] 89 % of control | [5] 93 % of control

Cc1cn(C2CC(O)C(COC(c3ccccc3)(c3ccccc3)c3ccc(OCC(=O)O)cc3)O2)c(=O)[nH]c1=O (stereo unspecified)
inactive: dose: 12.5 mg/kg/injection, schedule: Q01DX005 (ip), vehicle: distilled water + Tween-80 100 % of control | dose: 25.0 mg/kg/injection, schedule: Q01DX005 (ip), vehicle: distilled water + Tween-80 97 % of control | dose: 50.0 mg/kg/injection, schedule: Q01DX005 (ip), vehicle: distilled water + Tween-80 96 % of control | dose: 100.0 mg/kg/injection, schedule: Q01DX005 (ip), vehicle: distilled water + Tween-80 102 % of control | dose: 200.0 mg/kg/injection, schedule: Q01DX005 (ip), vehicle: distilled water + Tween-80 94 % of control

O=C(COc1ccc(Cl)cc1Cl)Nc1ccc(F)cc1
inactive: [1] 88 % of control | [2] 90 % of control | [6] 89 % of control

NCCNCCNCCNCCN (tested in a mixture with another compound)
inactive: [10] 104 % of control | [11] 111 % of control | [1] 110 % of control | [2] 105 % of control

CC(C)CCCC(C)[C@@H]1CCC2[C@H]3CCC4(C)CC5=C(C[C@@]4(C)C3CC[C@]21C)C(=O)CC1C2CCCCC2CCN51 (stereo partly specified)
inactive: [7] 102 % of control | [8] 90 % of control | [9] 90 % of control

NC(CSCc1ccccc1)C(=O)OCc1ccccc1 (stereo unspecified)
inactive: [1] 104 % of control | [2] 102 % of control | [6] 104 % of control

OC(c1ccccc1)(c1ccccc1)c1ccccc1Cl
inactive: [3] 98 % of control | [4] 101 % of control | [5] 102 % of control

O/N=C\c1ccc2c(c1)OCCO2
inactive: dose: 37.5 mg/kg/injection, schedule: Q01DX009 (ip), vehicle: saline 97 % of control | dose: 75.0 mg/kg/injection, schedule: Q01DX009 (ip), vehicle: saline 103 % of control | dose: 75.0 mg/kg/injection, schedule: Q04DX003 (ip), vehicle: saline 112 % of control | dose: 150.0 mg/kg/injection, schedule: Q01DX009 (ip), vehicle: saline 100 % of control | dose: 150.0 mg/kg/injection, schedule: Q04DX003 (ip), vehicle: saline 100 % of control | dose: 300.0 mg/kg/injection, schedule: Q04DX003 (ip), vehicle: saline 100 % of control

CCOC(=O)Nc1cc(F)cc(C(F)(F)F)c1F
inactive: [3] 97 % of control | [4] 97 % of control | [5] 109 % of control

Cc1ccc([N+](=O)[O-])cc1O
inactive: dose: 25.0 mg/kg/injection, schedule: Q01DX009 (ip), vehicle: saline 97 % of control | [10] 106 % of control | [11] 100 % of control

Source: PubChem BioAssay AID256 (DTP/NCI, 2004)
